Experimental data reported in US20160367623A1, “AGONISTS OF GUANYLATE CYCLASE USEFUL FOR THE TREATMENT OF GASTROINTESTINAL DISORDERS, INFLAMMATION, CANCER AND OTHER DISORDERS” (priority 2015, published 2016).
Bridge positions count the residues as written; N and C are the ends. Ends that are not written are not given here.

Test system: patients with chronic idiopathic constipation (CIC)
Assay: Second phase 3 CIC trial: CSBM weekly responders by week
Format: in vivo, human
Conditions: MRA
Source text: Both trials include a two-week pre-treatment baseline period, a 12-week treatment period, and a two-week post-treatment period. The phase 3 CIC program was designed to support regulatory submission in the U. S.
The primary endpoint for both trials is the proportion of durable overall responders (%), which is the current regulatory endpoint required for U.S. approval in CIC. The FDA has defined a durable overall responder as a patient who fulfills both ≧3 complete spontaneous bowel movements (CSBMs) per week plus an increase of ≧1 CSBM from baseline in the same week, for 9 out of the 12 treatment weeks. In addition, the same patient must be an overall responder for at least 3 of the last 4 treatment weeks in order to be considered a durable overall responder.
Patients were selected using Rome 3 criteria modified for CIC and had (1) fewer than 3 defecations per week, (2) loose stools occurring rarely without laxatives, (3) inadequate criteria for irritable bowel syndrome with constipation (IBS-C), and (4) at least two of the following applied to at least 25% of defecations: (a) straining during evacuation, (b) lumpy or hard stools, (c) sensation of anorectal obstruction or blockage. Rome 3 requires patients to fulfill the criteria for the last 3 months with symptom onset at least 6 months prior to diagnosis.

[1] = Post-Treatment Week 13, 3 mg, All Randomized (includes Duplicate Patients)
[2] = Post-Treatment Week 13, 3 mg, ITT Population
[3] = Post-Treatment Week 13, 3 mg, ITT Population-Excluding Duplicate Patients
[4] = Post-Treatment Week 13, 6 mg, All Randomized (includes Duplicate Patients)
[5] = Post-Treatment Week 13, 6 mg, ITT Population
[6] = Post-Treatment Week 13, 6 mg, ITT Population-Excluding Duplicate Patients
[7] = Post-Treatment Week 13, Active Combined, All Randomized (includes Duplicate Patients)
[8] = Post-Treatment Week 13, Active Combined, ITT Population-Excluding Duplicate Patients
[9] = Post-Treatment Week 13, Active Combined, ITT Population
[10] = Post-Treatment Week 14, 3 mg, All Randomized (includes Duplicate Patients)
[11] = Post-Treatment Week 14, 3 mg, ITT Population
[12] = Post-Treatment Week 14, 3 mg, ITT Population-Excluding Duplicate Patients
[13] = Post-Treatment Week 14, 6 mg, ITT Population
[14] = Post-Treatment Week 14, 6 mg, ITT Population-Excluding Duplicate Patients
[15] = Post-Treatment Week 14, Active Combined, ITT Population-Excluding Duplicate Patients
[16] = Post-Treatment Week 14, Active Combined, ITT Population
[17] = Week 1, 3 mg, ITT Population-Excluding Duplicate Patients
[18] = Week 1, 6 mg, ITT Population-Excluding Duplicate Patients
[19] = Week 1, Active Combined, ITT Population-Excluding Duplicate Patients
[20] = Week 1, Active Combined, ITT Population
[21] = Week 2, 3 mg, ITT Population-Excluding Duplicate Patients

Asn^1-Asp^2-Glu^3-Cys^4-Glu^5-Leu^6-Cys^7-Val^8-Asn^9-Val^10-Ala^11-Cys^12-Thr^13-Gly^14-Cys^15-Leu^16 (NDECELCVNVACTGCL; disulfide 4-12, 7-15) [Plecanatide, uroguanylin analogue, guanylate cyclase-C agonist; (C4:C12, C7:C15) bicycle peptide]
Difference in Proportions (adjusted) (Post-Treatment Week 13, 3 mg minus placebo, All Randomized (includes Duplicate Patients)): 0.042
Odds Ratio (adjusted) (Post-Treatment Week 13, 3 mg vs placebo, All Randomized (includes Duplicate Patients)): 0.796
CSBM Weekly Responders, n (%) [1]: 125 (26.6) n (%)
Non-Responders, n (%) [1]: 345 (73.4) n (%)
CSBM Weekly Responders, n (%) [2]: 121 (27.3) n (%)
Non-Responders, n (%) [2]: 322 (72.7) n (%)
CSBM Weekly Responders, n (%) [3]: 119 (27.4) n (%)
Non-Responders, n (%) [3]: 315 (72.6) n (%)
Difference in Proportions (adjusted) (Post-Treatment Week 13, 6 mg minus placebo, All Randomized (includes Duplicate Patients)): 0.003
Odds Ratio (adjusted) (Post-Treatment Week 13, 6 mg vs placebo, All Randomized (includes Duplicate Patients)): 0.981
CSBM Weekly Responders, n (%) [4]: 107 (22.7) n (%)
Non-Responders, n (%) [4]: 364 (77.3) n (%)
CSBM Weekly Responders, n (%) [5]: 106 (23.6) n (%)
Non-Responders, n (%) [5]: 343 (76.4) n (%)
CSBM Weekly Responders, n (%) [6]: 105 (23.7) n (%)
Non-Responders, n (%) [6]: 338 (76.3) n (%)
CSBM Weekly Responders, n (%) [7]: 232 (24.7) n (%)
Non-Responders, n (%) [7]: 709 (75.3) n (%)
Difference in Proportions (adjusted) (Post-Treatment Week 13, 3 mg minus placebo, ITT Population-Excluding Duplicate Patients): 0.045
Difference in Proportions (adjusted) (Post-Treatment Week 13, 3 mg minus placebo, ITT Population): 0.044
Odds Ratio (adjusted) (Post-Treatment Week 13, 3 mg vs placebo, ITT Population-Excluding Duplicate Patients): 0.786
Odds Ratio (adjusted) (Post-Treatment Week 13, 3 mg vs placebo, ITT Population): 0.792
Difference in Proportions (adjusted) (Post-Treatment Week 13, 6 mg minus placebo, ITT Population-Excluding Duplicate Patients): 0.008
Difference in Proportions (adjusted) (Post-Treatment Week 13, 6 mg minus placebo, ITT Population): 0.007
Odds Ratio (adjusted) (Post-Treatment Week 13, 6 mg vs placebo, ITT Population-Excluding Duplicate Patients): 0.954
Odds Ratio (adjusted) (Post-Treatment Week 13, 6 mg vs placebo, ITT Population): 0.962
CSBM Weekly Responders, n (%) [8]: 224 (25.5) n (%)
Non-Responders, n (%) [8]: 653 (74.5) n (%)
CSBM Weekly Responders, n (%) [9]: 227 (25.4) n (%)
Non-Responders, n (%) [9]: 665 (74.6) n (%)
Difference in Proportions (adjusted) (Post-Treatment Week 14, 3 mg minus placebo, All Randomized (includes Duplicate Patients)): 0.019
Odds Ratio (adjusted) (Post-Treatment Week 14, 3 mg vs placebo, All Randomized (includes Duplicate Patients)): 0.886
CSBM Weekly Responders, n (%) [10]: 95 (20.2) n (%)
Non-Responders, n (%) [10]: 375 (79.8) n (%)
CSBM Weekly Responders, n (%) [11]: 94 (21.2) n (%)
Non-Responders, n (%) [11]: 349 (78.8) n (%)
CSBM Weekly Responders, n (%) [12]: 93 (21.4) n (%)
Non-Responders, n (%) [12]: 341 (78.6) n (%)
Difference in Proportions (adjusted) (Post-Treatment Week 14, 6 mg minus placebo, All Randomized (includes Duplicate Patients)): −0.003
Odds Ratio (adjusted) (Post-Treatment Week 14, 6 mg vs placebo, All Randomized (includes Duplicate Patients)): 1.020
CSBM Weekly Responders, n (%) (Post-Treatment Week 14, 6 mg, All Randomized (includes Duplicate Patients)): 85 (18.0) n (%)
CSBM Weekly Responders, n (%) [13]: 83 (18.5) n (%)
Non-Responders, n (%) [13]: 366 (81.5) n (%)
CSBM Weekly Responders, n (%) [14]: 82 (18.5) n (%)
Non-Responders, n (%) [14]: 361 (81.5) n (%)
CSBM Weekly Responders, n (%) (Post-Treatment Week 14, Active Combined, All Randomized (includes Duplicate Patients)): 180 (19.1) n (%)
Difference in Proportions (adjusted) (Post-Treatment Week 14, 3 mg minus placebo, ITT Population-Excluding Duplicate Patients): 0.024
Difference in Proportions (adjusted) (Post-Treatment Week 14, 3 mg minus placebo, ITT Population): 0.026
Odds Ratio (adjusted) (Post-Treatment Week 14, 3 mg vs placebo, ITT Population-Excluding Duplicate Patients): 0.860
Odds Ratio (adjusted) (Post-Treatment Week 14, 3 mg vs placebo, ITT Population): 0.852
Difference in Proportions (adjusted) (Post-Treatment Week 14, 6 mg minus placebo, ITT Population-Excluding Duplicate Patients): −0.005
Difference in Proportions (adjusted) (Post-Treatment Week 14, 6 mg minus placebo, ITT Population): −0.002
Odds Ratio (adjusted) (Post-Treatment Week 14, 6 mg vs placebo, ITT Population-Excluding Duplicate Patients): 1.032
Odds Ratio (adjusted) (Post-Treatment Week 14, 6 mg vs placebo, ITT Population): 1.011
CSBM Weekly Responders, n (%) [15]: 175 (20.0) n (%)
Non-Responders, n (%) [15]: 702 (80.0) n (%)
CSBM Weekly Responders, n (%) [16]: 177 (19.8) n (%)
Non-Responders, n (%) [16]: 715 (80.2) n (%)
Difference in Proportions (adjusted) (Week 1, 3 mg minus placebo, All Randomized (includes Duplicate Patients)): 0.123
Odds Ratio (adjusted) (Week 1, 3 mg vs placebo, All Randomized (includes Duplicate Patients)): 0.468
Non-Responders, n (%) (Week 1, 3 mg, All Randomized (includes Duplicate Patients)): 342 (72.8) n (%)
CSBM Weekly Responders, n (%) (Week 1, 3 mg, ITT Population): 121 (27.3) n (%)
Non-Responders, n (%) (Week 1, 3 mg, ITT Population): 322 (72.7) n (%)
CSBM Weekly Responders, n (%) [17]: 121 (27.9) n (%)
Non-Responders, n (%) [17]: 313 (72.1) n (%)
Difference in Proportions (adjusted) (Week 1, 6 mg minus placebo, All Randomized (includes Duplicate Patients)): 0.106
Odds Ratio (adjusted) (Week 1, 6 mg vs placebo, All Randomized (includes Duplicate Patients)): 0.513
Non-Responders, n (%) (Week 1, 6 mg, All Randomized (includes Duplicate Patients)): 351 (74.5) n (%)
CSBM Weekly Responders, n (%) (Week 1, 6 mg, ITT Population): 114 (25.4) n (%)
Non-Responders, n (%) (Week 1, 6 mg, ITT Population): 335 (74.6) n (%)
CSBM Weekly Responders, n (%) [18]: 114 (25.7) n (%)
Non-Responders, n (%) [18]: 329 (74.3) n (%)
Non-Responders, n (%) (Week 1, Active Combined, All Randomized (includes Duplicate Patients)): 693 (73.6) n (%)
Difference in Proportions (adjusted) (Week 1, 3 mg minus placebo, ITT Population-Excluding Duplicate Patients): 0.123
Difference in Proportions (adjusted) (Week 1, 3 mg minus placebo, ITT Population): 0.118
Odds Ratio (adjusted) (Week 1, 3 mg vs placebo, ITT Population-Excluding Duplicate Patients): 0.477
Odds Ratio (adjusted) (Week 1, 3 mg vs placebo, ITT Population): 0.488
Difference in Proportions (adjusted) (Week 1, 6 mg minus placebo, ITT Population-Excluding Duplicate Patients): 0.102
Difference in Proportions (adjusted) (Week 1, 6 mg minus placebo, ITT Population): 0.099
Odds Ratio (adjusted) (Week 1, 6 mg vs placebo, ITT Population-Excluding Duplicate Patients): 0.533
Odds Ratio (adjusted) (Week 1, 6 mg vs placebo, ITT Population): 0.539
CSBM Weekly Responders, n (%) [19]: 235 (26.8) n (%)
Non-Responders, n (%) [19]: 642 (73.2) n (%)
CSBM Weekly Responders, n (%) [20]: 235 (26.3) n (%)
Non-Responders, n (%) [20]: 657 (73.7) n (%)
Difference in Proportions (adjusted) (Week 2, 3 mg minus placebo, All Randomized (includes Duplicate Patients)): 0.089
Odds Ratio (adjusted) (Week 2, 3 mg vs placebo, All Randomized (includes Duplicate Patients)): 0.582
CSBM Weekly Responders, n (%) (Week 2, 3 mg, All Randomized (includes Duplicate Patients)): 120 (25.5) n (%)
CSBM Weekly Responders, n (%) (Week 2, 3 mg, ITT Population): 112 (25.3) n (%)
Non-Responders, n (%) (Week 2, 3 mg, ITT Population): 331 (74.7) n (%)
CSBM Weekly Responders, n (%) [21]: 110 (25.3) n (%)
Non-Responders, n (%) [21]: 324 (74.7) n (%)
